# How the values were obtained:
# [1] = Crystal slurrying competition experiment of crystal forms; format: physicochemical; details: room temperature; for relative stability of crystal forms from competition experiments: conclusion in words
# Description: 6.2. Competitive experiments of crystal forms I, II and III of compound 1 were performed at room temperature to investigate the stability of the crystal forms in isopropyl acetate and a water/acetonitrile (v/v=1:1) solvent, and Competitive experiments of the crystal forms I and II of compound 3 were performed at room temperature to investigate the stability of the crystal forms in an ethanol/water (v/v=1:1) solvent and an acetone/water (v/v=1:1) solvent.
# [2] = Chemical stability at high temperature (40° C.) and high humidity (RH 92.5%), purity by HPLC; format: physicochemical; details: for Purity by HPLC, 0 day: 0 day (initial); for Purity by HPLC, 92.5% RH 30 days: high humidity 92.5% RH; for Purity by HPLC, 40° C. 30 days: high temperature 40° C.; for chemical stability: 40° C. and RH 92.5%, purity by HPLC, conclusion in words
# Description: Samples were taken and tested at high temperature (40° C.) and under high humidity (RH 92.5%) respectively. The purity (represented by a percentage) was detected by HPLC.
# With regard to methods for preparing test solutions and conditions for detecting purity by HPLC, reference was made to Tables 13, 14 and 15.
# [3] = Solubility in water at 25° C.; format: physicochemical
# Description: 7. Solubility Data in Water at 25° C.
# [4] = Pharmacokinetic test of dogs; format: in vivo; details: Beagle dogs; for Having bioavailability or not / AUC(0-t): i.g. (10 mg/kg); for AUC(0-t): male, dog, po, plasma
# Description: Experimental objective: in this experiment, a single dose of each test compound was administered to Beagle dogs intravenously and intragastrically, the concentrations of the test compounds in plasma of dogs were measured, and the pharmacokinetic characteristics and bioavailability of the test compounds in dogs were evaluated.
# Experimental animal: male Beagle dogs (about 8-11 kg, […], 6 dogs/compound), purchased from Beijing Marshall Biotechnology Co. Ltd.
# The animals were fasted but with water available for 14 to 18 hours one day before administration, and were fed 4 hours after administration.
# Sampling: before and after administration, 1.0 ml of blood was taken from jugular veins, and placed in an EDTAK2 centrifuge tube. Centrifugation was carried out at 5000 rpm at 4° C. for 10 m, and the plasma was collected.
# Time points for plasma collection in G1& G2 groups: 0, 5 min, 15 min, 30 mi 1 h, 2 h, 4 h, 6 h, 8 h, 10 h, […] and 24 h.
# Before analysis and detection, all samples were stored at −80° C. The samples were detected by using HPLC-MS/MS.
# [5] = Stability of crystal form of compound 1 and compound 3 (XRD); format: physicochemical; details: conclusion in words
# Description: 6.1. Stability of crystal form of compound 1 and compound 3.
# [6] = listed as Crystal form III of compound 1
# [7] = listed as Amorphous form of compound 1
Compound,improvement of solubility as compared with compound 1 [3],solubility [3],Having bioavailability or not [4],increase of oral exposure amount as compared with compound 1 [4],AUC(0-t) [4],chemical stability [2],further results
"Nc1ncnc2c1c(-c1ccc(Oc3ccccc3)cc1)nn2C1CCN(C2CN(C3CN(c4ccc5c(c4)C(=O)N(C4CCC(=O)NC4=O)C5=O)C3)C2)CC1 (stereo not shown) [5-[3-[3-[4-[4-amino-3-(4-phenoxyphenyl)pyrazolo[3,4-d]pyrimidin-1-yl]-1-piperidyl]azetidin-1-yl]azetidin-1-yl]-2-(2,6-dioxo-3-piperidyl)isoindoline-1,3-dione]",–,–,–,–,–,–,"Experimental XRD result after crystal slurrying competition ([1]; isopropyl acetate, 2 days): Crystal form III; Experimental XRD result after crystal slurrying competition ([1]; water/acetonitrile (v/v = 1:1), 2 days): Crystal form III"
"Nc1ncnc2c1c(-c1ccc(Oc3ccccc3)cc1)nn2C1CCN(C2CN(C3CN(c4ccc5c(c4)C(=O)N(C4CCC(=O)NC4=O)C5=O)C3)C2)CC1 (stereo not shown) [crystal form III of compound 1, 5-[3-[3-[4-[4-amino-3-(4-phenoxyphenyl)pyrazolo[3,4-d]pyrimidin-1-yl]-1-piperidyl]azetidin-1-yl]azetidin-1-yl]-2-(2,6-dioxo-3-piperidyl)isoindoline-1,3-dione]",–,–,–,–,–,–,"relative stability of crystal forms from competition experiments [1]: most stable crystal form; Purity by HPLC, 0 day [2, 6]: 99.41%; Purity by HPLC, 92.5% RH 30 days [2, 6]: 99.30%; Purity by HPLC, 40° C. 30 days [2, 6]: 99.28%"
"Nc1ncnc2c1c(-c1ccc(Oc3ccccc3)cc1)nn2C1CCN(C2CN(C3CN(c4ccc5c(c4)C(=O)N(C4CCC(=O)NC4=O)C5=O)C3)C2)CC1.O=C(O)C(O)C(O)C(=O)O [Compound 7, 5-[3-[3-[4-[4-amino-3-(4-phenoxyphenyl)pyrazolo[3,4-d]pyrimidin-1-yl]-1-piperidyl]azetidin-1-yl]azetidin-1-yl]-2-(2,6-dioxo-3-piperidyl)isoindoline-1,3-dione L-tartrate]",more than 15 times,143 µg/mL,Yes,more than 2 times,95.5 ± 65 ng·h/mL,–,–
"Nc1ncnc2c1c(-c1ccc(Oc3ccccc3)cc1)nn2C1CCN(C2CN(C3CN(c4ccc5c(c4)C(=O)N(C4CCC(=O)NC4=O)C5=O)C3)C2)CC1.O=C(O)CC(O)(CC(=O)O)C(=O)O (stereo not shown) [Compound 5, 5-[3-[3-[4-[4-amino-3-(4-phenoxyphenyl)pyrazolo[3,4-d]pyrimidin-1-yl]-1-piperidyl]azetidin-1-yl]azetidin-1-yl]-2-(2,6-dioxo-3-piperidyl)isoindoline-1,3-dione citrate]",more than 15 times,166 µg/mL,Yes,more than 2 times,59.5 ± 21 ng·h/mL,relatively good chemical stability,"Purity by HPLC, 0 day [2]: 98.44%; Purity by HPLC, 92.5% RH 30 days [2]: 98.05%"
"Nc1ncnc2c1c(-c1ccc(Oc3ccccc3)cc1)nn2C1CCN(C2CN(C3CN(c4ccc5c(c4)C(=O)N(C4CCC(=O)NC4=O)C5=O)C3)C2)CC1.O=C(O)/C=C\C(=O)O.O=C(O)/C=C\C(=O)O (stereo not shown) [crystal form I of compound 3, 5-[3-[3-[4-[4-amino-3-(4-phenoxyphenyl)pyrazolo[3,4-d]pyrimidin-1-yl]-1-piperidyl]azetidin-1-yl]azetidin-1-yl]-2-(2,6-dioxo-3-piperidyl)isoindoline-1,3-dione dimaleate]",more than 15 times,172 µg/mL,Yes,more than 2 times,75.1 ± 50 ng·h/mL,relatively good chemical stability,"relative stability of crystal forms from competition experiments [1]: most stable crystal form; Purity by HPLC, 0 day [2]: 99.85%; Purity by HPLC, 92.5% RH 30 days [2]: 99.76%; Purity by HPLC, 40° C. 30 days [2]: 99.74%"
"Nc1ncnc2c1c(-c1ccc(Oc3ccccc3)cc1)nn2C1CCN(C2CN(C3CN(c4ccc5c(c4)C(=O)N(C4CCC(=O)NC4=O)C5=O)C3)C2)CC1.O=C(O)C[C@H](O)C(=O)O [Compound 4, 5-[3-[3-[4-[4-amino-3-(4-phenoxyphenyl)pyrazolo[3,4-d]pyrimidin-1-yl]-1-piperidyl]azetidin-1-yl]azetidin-1-yl]-2-(2,6-dioxo-3-piperidyl)isoindoline-1,3-dione L-malate]",more than 15 times,158 µg/mL,–,–,–,–,–
"Nc1ncnc2c1c(-c1ccc(Oc3ccccc3)cc1)nn2C1CCN(C2CN(C3CN(c4ccc5c(c4)C(=O)N(C4CCC(=O)NC4=O)C5=O)C3)C2)CC1.O=C(O)/C=C\C(=O)O.O=C(O)/C=C\C(=O)O (stereo not shown) [amorphous form of compound 3, 5-[3-[3-[4-[4-amino-3-(4-phenoxyphenyl)pyrazolo[3,4-d]pyrimidin-1-yl]-1-piperidyl]azetidin-1-yl]azetidin-1-yl]-2-(2,6-dioxo-3-piperidyl)isoindoline-1,3-dione dimaleate]",–,–,–,–,–,–,stability of crystal form [5]: relatively good stability
"Nc1ncnc2c1c(-c1ccc(Oc3ccccc3)cc1)nn2C1CCN(C2CN(C3CN(c4ccc5c(c4)C(=O)N(C4CCC(=O)NC4=O)C5=O)C3)C2)CC1 (stereo not shown) [Compound 1, 5-[3-[3-[4-[4-amino-3-(4-phenoxyphenyl)pyrazolo[3,4-d]pyrimidin-1-yl]-1-piperidyl]azetidin-1-yl]azetidin-1-yl]-2-(2,6-dioxo-3-piperidyl)isoindoline-1,3-dione]",–,–,–,–,–,–,"solubility in water ([3]; conclusion in words): a certain level of solubility; oral bioavailability in dogs ([4]; intragastric vs intravenous, conclusion in words): a certain level of oral bioavailability"
Nc1ncnc2c1c(-c1ccc(Oc3ccccc3)cc1)nn2C1CCN(C2CN(C3CN(c4ccc5c(c4)C(=O)N(C4CCC(=O)NC4=O)C5=O)C3)C2)CC1.O=C(O)/C=C\C(=O)O.O=C(O)/C=C\C(=O)O (stereo not shown),–,–,–,–,–,–,"Experimental XRD result after crystal slurrying competition ([1]; acetone/water (v/v = 1:1), 3 days): Crystal form I; Experimental XRD result after crystal slurrying competition ([1]; ethanol/water (v/v = 1:1), 3 days): Crystal form I"

# More lines, main results first:
improvement of solubility as compared with compound 1 [3],solubility [3],Having bioavailability or not [4],increase of oral exposure amount as compared with compound 1 [4],AUC(0-t) [4],chemical stability [2],Compound,further results
–,9 µg/mL,Yes,–,26.9 ± 3.3 ng·h/mL,relatively good chemical stability,"Nc1ncnc2c1c(-c1ccc(Oc3ccccc3)cc1)nn2C1CCN(C2CN(C3CN(c4ccc5c(c4)C(=O)N(C4CCC(=O)NC4=O)C5=O)C3)C2)CC1 (stereo not shown) [amorphous form of compound 1, 5-[3-[3-[4-[4-amino-3-(4-phenoxyphenyl)pyrazolo[3,4-d]pyrimidin-1-yl]-1-piperidyl]azetidin-1-yl]azetidin-1-yl]-2-(2,6-dioxo-3-piperidyl)isoindoline-1,3-dione]","stability of crystal form [5]: relatively good stability; Purity by HPLC, 0 day [2, 7]: 98.88%; Purity by HPLC, 92.5% RH 30 days [2, 7]: 98.82%; Purity by HPLC, 40° C. 30 days [2, 7]: 98.85%"
more than 15 times,346 µg/mL,Yes,more than 2 times,79.4 ± 20 ng·h/mL,relatively good chemical stability,"Nc1ncnc2c1c(-c1ccc(Oc3ccccc3)cc1)nn2C1CCN(C2CN(C3CN(c4ccc5c(c4)C(=O)N(C4CCC(=O)NC4=O)C5=O)C3)C2)CC1.O=C(O)C(=O)O (stereo not shown) [Compound 9, 5-[3-[3-[4-[4-amino-3-(4-phenoxyphenyl)pyrazolo[3,4-d]pyrimidin-1-yl]-1-piperidyl]azetidin-1-yl]azetidin-1-yl]-2-(2,6-dioxo-3-piperidyl)isoindoline-1,3-dione oxalate]","Purity by HPLC, 0 day [2]: 98.67%; Purity by HPLC, 92.5% RH 30 days [2]: 98.28%"

# Source: patent US20240018147A1, “SALT OF COMPOUND FOR DEGRADING BTK, CRYSTAL FORM THEREOF, AND USE THEREOF IN MEDICINE” (HAISCO PHARMACEUTICALS PTE. LTD., priority 2020, published 2024)
